Experimental data reported in PubChem BioAssay AID1259418 (Broad Institute, 2018).
“And” between values parts separate entries of the source, which are not always exact repeats. Equal entries are not always repeated. Results filed as inconclusive are left out. The source made the active and inactive calls.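 How the source made its calls: active means fitted half-maximal concentration of signal decrease at or below twice the sample's top tested concentration; inconclusive means flat curve between -70 and -30 percent, or poor fit; inactive means flat within 30 percent, signal rise, or potency above limit.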

target: T. gondii ME49Luc in IFN-y HeLa, luciferase, 72 h; assay: inhibitors of Toxoplasma growth in IFN-γ-primed HeLa – cell-based, ME49Luc, luciferase, 72 h, dose response (AID 1259418)

Structure (SMILES)	AC50
COc1cc(Nc2nc(SCc3ccccc3F)nc3ccccc23)cc(OC)c1OC	20.6 µM
COc1cccc(-c2nc3c(s2)CN(C(=O)Nc2ccc(C)c(F)c2)CC3)c1	13.1 µM
CCOc1ccc(-c2nc(CN3CCN(C(=O)Nc4ccc(C)cc4Cl)CC3)c(C)o2)cc1	24.1 µM
Cc1cccc(CNC2=NCCNC23CCN(S(=O)(=O)c2ccc(CC(C)C)cc2)CC3)c1	8.2 µM
Cc1cccc(C(=O)Nc2c(C(=O)NCc3cccnc3)[nH]c3ccccc23)c1	> 39 µM (inactive)
Cc1ccccc1Cn1c(CN2CCC(C(=O)N3CCCC3)CC2)cc2ccccc21	> 39 µM (inactive)
COc1ccc2c(c1)NC1(CCN(C(=O)c3c(F)cccc3F)CC1)c1cccn1-2	> 39 µM (inactive)
CC/C(=C(\c1ccccc1)c1ccc(OCCN(C)C)cc1)c1ccccc1	35.2 µM
O=C(C[C@H]1CC[C@H]2[C@@H](COC[C@@H](O)CN2Cc2cc(F)ccc2F)O1)NCc1ccc(Oc2ccccc2)cc1	27.3 µM
COc1cccc(N(Cc2nc(-c3ccc(C)cc3)oc2C)S(=O)(=O)c2ccc(C)cc2)c1	7.83 µM
Cc1ccc(CNC2=NCCNC23CCN(S(=O)(=O)c2ccc(Cl)s2)CC3)cc1	5.08 µM
CC(C)NC(=O)N1CC(=O)N2[C@H](C1)[C@@H](c1ccc(/C=C/c3ccccc3)cc1)[C@@H]2CO	10.4 µM
CO[C@@H]1[C@@H](OC(N)=O)[C@@H](O)[C@H](Oc2ccc3c(O)c(NC(=O)c4ccc(O)c(CC=C(C)C)c4)c(=O)oc3c2C)OC1(C)C	22.2 µM
Clc1ccc(CNc2nc(SCc3cccc(Cl)c3)nc3ccccc23)cc1	5.24 µM
COc1ccc(CC(=O)Nc2ccc3c(c2)CCC(=O)N3C)c(Cl)c1	21.2 µM
O=S(=O)(c1ccc(Cl)s1)N1CCC2(CC1)NCCN=C2NCc1ccccc1F	17.9 µM
Cc1ccc(CNC2=NCCNC23CCN(S(=O)(=O)c2ccc4c(c2)CCCC4)CC3)cc1	19.4 µM
CCc1c(C)sc2c1CCN(Cc1nc(-c3cccc(OC)c3OC)oc1C)C2c1ccccc1 (stereo unspecified)	15.7 µM
CCOc1ccc(-c2nc(CN(c3cccc(OC)c3)S(=O)(=O)c3ccccc3C)c(C)o2)cc1	34.5 µM
CCOC(=O)CSC1=Nc2ccccc2C2=NC(CCC(=O)NCc3ccc(OC)cc3)C(=O)N12 (stereo unspecified)	27.8 µM
CC(C)CC#Cc1ccc([C@H]2[C@H]3CN(C(=O)c4cccc(F)c4)CC(=O)N3[C@H]2CO)cc1	20.3 µM
Cc1ccc(S(=O)(=O)N2CCC3(CC2)NCCN=C3NCc2ccccc2F)cc1C	22.5 µM
Cc1ccc(S(=O)(=O)N2CCC3(CC2)NCCN=C3NCc2ccc(F)c(Cl)c2)cc1C	16.5 µM

Structure (SMILES)	AC50
CCN(CC)CCO[C@H]1CC[C@@]2(C)C(=CC[C@@H]3[C@@H]2CC[C@]2(C)C(=O)CC[C@@H]32)C1	12 µM
COc1cccc(NC(=O)N2CC(=O)N3[C@H](CO)[C@@H](c4ccc(C#CCC5CCCC5)cc4)[C@@H]3C2)c1	11.9 µM and 9.9 µM
CC(C)CC#Cc1ccc([C@H]2[C@H]3CN(C(=O)Nc4cc(F)ccc4F)CC(=O)N3[C@H]2CO)cc1	> 39 µM (inactive) and 8.8 µM
COc1cccc(-c2nc3c(s2)CN(S(=O)(=O)c2ccccc2C)CC3)c1	6.95 µM and 17.2 µM
COc1cccc(S(=O)(=O)N2CCCCN3[C@H](CO)[C@@H](c4ccc(C#CCC(C)C)cc4)[C@@H]3C2)c1	5.58 µM and 10.4 µM and 10.5 µM
Fc1ccccc1CSc1nc(Nc2ccc3c(c2)OCO3)c2ccccc2n1	33.2 µM
CCS(=O)(=O)N1CCc2nc(-c3cccc(F)c3)nc(NC3CC3)c2C1	31.4 µM
COc1ccc(-c2nc(NCCCN3CCOCC3)c3ccccc3n2)cc1	16.6 µM
COc1cc(NC(=O)Nc2ccc(-c3nc(-c4ccc(C)cc4C)co3)cc2)cc(OC)c1	25.7 µM
COc1ccc(-c2nc(CN(c3ccccc3OC)S(=O)(=O)c3ccccc3)c(C)o2)cc1	7.78 µM
COc1ccc(-c2nc(Nc3ccc(C)cc3)c3ccccc3n2)cc1	19.1 µM
O=C(CC1N=C2c3ccccc3N=C(SCc3cccc(F)c3)N2C1=O)NC1CCCCC1 (stereo unspecified)	30 µM
CCc1ccccc1S(=O)(=O)N1CCC(C(=O)NCCc2csc(-c3ccccc3)n2)CC1	17.5 µM
COc1ccc(-c2nc(CN(c3ccccc3OC)S(=O)(=O)c3ccccc3)c(C)o2)cc1OC	3.59 µM
CCOc1ccccc1-n1c(C(C)N2CCN(C(=O)COc3ccc(Cl)cc3)CC2)nc2ccccc2c1=O (stereo unspecified)	7.75 µM
C=C(C)[C@@H]1CC[C@]2(C(=O)O)CC[C@]3(C)[C@H](CC[C@@H]4[C@@]5(C)CC[C@H](O)C(C)(C)[C@@H]5CC[C@]43C)[C@@H]12	30 µM
O=S(=O)(c1ccc2c(c1)CCCC2)N1CCC2(CC1)NCCN=C2NCc1ccccc1	12.9 µM
CCOC(=O)Cn1c(C)c(CN2CCCC2c2cc(C(C)C)no2)c2ccccc21 (stereo unspecified)	15.5 µM
Cc1ccc(NC(=O)c2cc(-c3cnc(-c4ccccc4)nc3)cn2CC2CC2)cn1	10.9 µM
Cc1ccc(-c2coc(-c3ccc(NS(=O)(=O)c4ccc(CC(C)C)cc4)cc3)n2)c(C)c1	> 39 µM (inactive)
Cc1cccc(-c2nc(Cn3nnc(-c4nc(-c5cccs5)no4)c3C)c(C)o2)c1	> 39 µM (inactive)
Cc1ccccc1S(=O)(=O)N1CC[C@@H]2[C@H]1c1cc(-c3cccc(F)c3)ccc1N(C)[C@H]2CO	17.7 µM
COc1cccc(-c2ccc3c(c2)[C@H]2[C@H](CCN2S(=O)(=O)c2ccccc2F)[C@H](CO)N3)c1	19.3 µM

Structure (SMILES)	AC50
CCc1cnc(N2[C@@H](C#N)[C@@H](c3ccc(C#Cc4ccccc4F)cc3)[C@@H]2CO)s1	17.2 µM
CN(C)CC(=O)N1[C@H](C#N)[C@H](c2ccc(C#CC3CCCCC3)cc2)[C@@H]1CO	14.8 µM
COc1ccccc1C#Cc1ccc([C@H]2[C@@H](CO)N3CCCCN(C(=O)C4CCC4)C[C@@H]23)cc1	18.8 µM
O=C1CCc2cc(NC(=O)c3cccc(C(F)(F)F)c3)ccc2N1	16.8 µM
C[C@H](CO)N1C[C@H](C)[C@H](CN(C)Cc2ccc(Cl)c(Cl)c2)Oc2c(NS(=O)(=O)c3ccc(F)cc3)cccc2C1=O	20.9 µM
Cc1ccccc1S(=O)(=O)N1C[C@@H]2N[C@H](C1)C2c1ccc(-c2cccc(C#N)c2)cc1 (stereo partly specified)	15.6 µM and 2.57 µM and 18.7 µM
CCOc1ccccc1C(=O)N1CCC2(CC1)Nc1ccc(Cl)cc1-n1cccc12	24.3 µM
O=C(Nc1cccc(F)c1)N1CCCCN2[C@H](CO)[C@H](c3ccc(C#Cc4cccnc4)cc3)[C@@H]2C1	2.07 µM and 1.05 µM
O=C(NC1CCCC1)N1CCCCN2[C@H](CO)[C@@H](c3ccc(-c4cccnc4)cc3)[C@H]2C1	> 39 µM (inactive)
CCc1ccc(N2CCC(C(=O)NCCc3c[nH]c4ccc(C)cc34)C2=O)cc1 (stereo unspecified)	22.9 µM
C[C@@H]1CN(Cc2ccc(F)cc2)CCN1C(=O)COc1ccc(Cl)cc1NC(N)=O	> 39 µM (inactive)
COc1ccccc1NS(=O)(=O)c1cc2c3c(c1)CCC(=O)N3CCC2	25.4 µM
CC(=O)O.CC(=O)O.[Cl][Pt+2][Cl].[NH-]C1CCCCC1.[NH2-]	25.4 µM
Cc1ccc(NC(=O)N2CCN(Cc3nc(-c4cccc(Cl)c4)oc3C)CC2)cc1	> 39 µM (inactive)
O=C(CCC1N=C2c3ccccc3N=C(SCc3cc(=O)n4cc(Cl)ccc4n3)N2C1=O)NC1CCCCC1 (stereo unspecified)	> 39 µM (inactive)
O=C(Cc1cccnc1)N1CC(=O)N2[C@@H](CO)[C@H](c3ccc(C4=CCCCC4)cc3)[C@@H]2C1	> 39 µM (inactive)
Cc1ccc(-n2ncc3c(NCc4cccc(Cl)c4)ncnc32)c(C)c1	22.3 µM
CC(C)CNC(=O)c1cc(-c2ccn(CC3CC3)n2)n2ccccc12	13.3 µM
Cc1ccc(OCC(=O)Nc2ccc(-c3nc(-c4ccccc4)co3)cc2)cc1	> 39 µM (inactive)
O=C(c1ccc2c(c1)OCO2)N1C[C@@H]2N[C@H](C1)C2c1ccc(/C=C/c2ccccc2)cc1 (stereo partly specified)	8.94 µM and 21.9 µM
COc1cccc(-c2nc(C)c(-c3ccc(SCc4ccc(F)cc4)nn3)s2)c1	6.5 µM
CCOc1ccccc1-c1nc(CN(c2ccc(OC)cc2)S(=O)(=O)c2ccc(C)cc2)c(C)o1	10.7 µM
COc1ccc(-c2nc(NCCc3ccc(OC)c(OC)c3)c3ccccc3n2)cc1	17.4 µM

Structure (SMILES)	AC50
CCOc1ccc(-c2nc(CN(c3ccc(OC)cc3)S(=O)(=O)c3cccs3)c(C)o2)cc1	8.01 µM and 17.4 µM
O=C1NCC(=O)N2CCN(C(=O)Nc3cc(Cl)cc(Cl)c3)CC12 (stereo unspecified)	20.3 µM
COc1ccc(-c2nc(NCCCN3CCCC(C)C3)c3ccccc3n2)cc1 (stereo unspecified)	> 20 µM (inactive)
Cc1ccccc1-c1ccc(C2[C@H]3CNC[C@@H]2N3Cc2ccc3c(c2)OCO3)cc1 (stereo partly specified)	> 39 µM (inactive)
CN(C)C(=O)COCc1cncc2c1CCN(c1ccccn1)C2	6.26 µM
COc1ccc(CNC(=O)CC2N=C3c4ccccc4N=C(SCc4ccc(C)cc4)N3C2=O)cc1 (stereo unspecified)	19.4 µM
Cn1c2ccccc2c2c1cc(C(=O)N1CCN(c3ccncc3)CC1)n2S(C)(=O)=O	26.6 µM
CCOc1ccc(N(Cc2nc(-c3ccc(OC)cc3)oc2C)S(=O)(=O)c2cccs2)cc1	4.79 µM
COc1ccc(CNC2=NCCNC23CCN(S(=O)(=O)c2ccc(C)cc2C)CC3)cc1	18.6 µM
C(=C\c1ccc(C2[C@@H]3CN(Cc4nccs4)C[C@H]2N3)cc1)/c1ccccc1 (stereo partly specified)	17.1 µM
O=C(NCCCN1CCCC1=O)C1CCN(Cc2cc3ccccc3n2Cc2cccc(F)c2)CC1	30.3 µM
CCc1c2c(nc3ccc(OC(=O)N4CCC(N5CCCCC5)CC4)cc13)-c1cc3c(c(=O)n1C2)COC(=O)[C@]3(O)CC	21 µM
O=C1CCc2cc(S(=O)(=O)N3CCc4ccccc4C3)cc3c2N1CCC3	31.1 µM
COc1cccc(NC(=O)COc2nc(C)nc3ccccc23)c1	36.7 µM
C[C@H]1CN([C@@H](C)CO)C(=O)c2cccc(NS(=O)(=O)c3ccc(F)cc3)c2O[C@H]1CN(C)Cc1ccc(Cl)c(Cl)c1	19.2 µM and 11.7 µM
COc1ccc(-c2nc(CN(c3ccc(C)cc3)S(=O)(=O)c3cccs3)c(C)o2)cc1OC	15 µM
Cc1ccc(CSC2=Nc3ccccc3C3=NC(CCC(=O)NCc4cccs4)C(=O)N23)c(C)c1 (stereo unspecified)	21.4 µM
COc1ccccc1-c1nc(CN(c2ccc(C)cc2)S(=O)(=O)c2cccs2)c(C)o1	30.4 µM
CN1C(=O)CCc2cc(NC(=O)C(F)(F)F)ccc21	17.1 µM
COc1cc(NC(=O)Nc2ccc(-c3nc(-c4cc(C)ccc4C)co3)cc2)cc(OC)c1OC	14.5 µM
COCC(=O)N1[C@@H](C#N)[C@H](c2ccc(C#CCC3CCCC3)cc2)[C@@H]1CO	38.3 µM
COc1cccc(CNC2=NCCNC23CCN(S(=O)(=O)c2cc(C)c(C)cc2C)CC3)c1	9.29 µM
